# Patent US5866681A, “Thrombin receptor antagonists” (priority 1995, dated 1999)
# pIC50: −log10 of the molar value. Where a SMILES comes first, the peptide text is derived from it. [ ]: non-standard residue; d: D form. The star is where a group is joined. X25 = CN(Cc1ccc(-c2ccccc2)cc1)[C@@H](Cc1ccccc1)C(=O)*; X1 = CN(Cc1cccc(Oc2ccccc2)c1)[C@@H](Cc1ccccc1)C(=O)*; X13 = CN(CC1CCCCC1)[C@@H](Cc1ccccc1)C(=O)*; X6 = CCCCCN(CCCCC)[C@@H](Cc1ccccc1)C(=O)*; X9 = CN(Cc1ccccc1)[C@@H](Cc1ccccc1)C(=O)*; X11 = O=C([C@@H]1Cc2ccccc2CN1CC1CCCCC1)*; Benzoyl(2-Ph) = O=C(c1ccccc1-c1ccccc1)*; X19 = CC(C)(C)CN1Cc2ccccc2C[C@H]1C(=O)*; Butanoyl(2-OPh) = CCC(Oc1ccccc1)C(=O)*; X7 = CCCCCCC(Oc1ccc2ccccc2c1)C(=O)*; X20 = CCCCC(Oc1cccc2ccccc12)C(=O)*; X4 = CCCCCN1Cc2ccccc2C[C@H]1C(=O)*; Cha = N[C@@H](CC1CCCCC1)C(=O)O; X21 = CCCCC(Oc1ccccc1)C(=O)*
# Target: T1, thrombin receptor (Homo sapiens, UniProt P25116)
# T1 construct: washed human platelets are prepared from blood drawn from healthy volunteers; endogenous in cells; host or cells: washed human platelets from healthy volunteers
# T1 sequence (P25116 22-425): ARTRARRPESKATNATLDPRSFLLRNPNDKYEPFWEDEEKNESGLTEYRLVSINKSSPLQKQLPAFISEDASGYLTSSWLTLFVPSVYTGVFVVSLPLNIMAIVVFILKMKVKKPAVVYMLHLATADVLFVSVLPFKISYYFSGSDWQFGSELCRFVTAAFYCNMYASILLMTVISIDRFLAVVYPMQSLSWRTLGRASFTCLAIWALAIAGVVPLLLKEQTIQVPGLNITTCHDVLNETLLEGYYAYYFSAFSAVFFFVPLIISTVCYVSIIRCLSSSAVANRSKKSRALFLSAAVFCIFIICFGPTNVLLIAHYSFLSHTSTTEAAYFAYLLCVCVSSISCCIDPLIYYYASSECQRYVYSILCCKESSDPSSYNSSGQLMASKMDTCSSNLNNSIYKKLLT
# Test: Platelet aggregation assay for thrombin receptor antagonist activity (washed human platelets stimulated with α-thrombin)
# Type: cell-based
# Details: washed human platelets, thrombin-mediated aggregation; read-out: IC50 (concentration at which 50% inhibition of platelet aggregation is achieved)
# Experimental: The compounds of the present invention may be tested for thrombin receptor antagonist activity by using a platelet aggregation assay. In this assay, washed human platelets are prepared from blood drawn from healthy volunteers who have not ingested any medications for two weeks prior to donation. Blood is drawn into 12.5% (vol/vol) ACD (85 mM sodium citrate, 111 mM dextrose, 71 mM citric acid) containing 0.1% (vol/vol) PGI2 (0.05 mg/mL PGI2, 100 mM Tris, pH 12). Platelet-rich plasma was obtained by centrifugation at 160×g for 20 minutes. The platelets were pelleted by centrifugation at 760×g for 10 minutes and resuspended in CGS (13 mM trisodium citrate, 120 mM sodium chloride, 30 mM dextrose, pH 7.0) containing 0.1% (vol/vol) PGI2, repelleted and resuspended in Tyrodes buffer (10 mM Hepes, 12 mM sodium bicarbonate, 138 mM sodium chloride, 5.5 mM glucose, 2.9 mM potassium chloride, 1.0 mM calcium chloride, pH 7.4) and stored at 37° C. Approximately 0.4-10 nM α-thrombin is used to stimulate platelet aggregation in control reactions which are monitored by aggregometry using an aggregometer. Candidate antagonists are added to the platelet mixture followed by the addition of thrombin in order to assess their ability to prevent thrombin-mediated aggregation.
# Platelet aggregation can also be measured with washed platelets in 96-well microtiter plates as described in Fratantoni, J. C. et al., Am. J. Clin. Pathol. 94:613-617 (1990). The ability of the antagonists to block the thrombin receptor was assessed in this assay using various concentrations of antagonists. The concentration at which 50% inhibition of platelet aggregation is achieved is defined as IC50.
row,pIC50,Structure (SMILES)
1,5.60,"CCCCCN1Cc2ccccc2C[C@H]1C(=O)N[C@@H](CC1CCCCC1)C(=O)N[C@@H](CC1CCCCC1)C(=O)N[C@@H](CCCNC(=N)N)C(=O)N[C@@H](CCCCN)C(N)=O [Compound 11, (N-n-pentyl-Tic)-Cha-Cha-Arg-Lys-NH2] (X4-[Cha][Cha]RK-NH2)"
2,4.70,N=C(N)NCCC[C@H](NC(=O)[C@H](CC1CCCCC1)NC(=O)[C@H](CC1CCCCC1)NC(=O)[C@@H]1Cc2ccccc2CN1CC1CCCCC1)C(=O)N[C@@H](CCCCN)C(N)=O [Compound 12] (X11-[Cha][Cha]RK-NH2)
3,5.30,CN(Cc1ccc(-c2ccccc2)cc1)[C@@H](Cc1ccccc1)C(=O)N[C@@H](CC1CCCCC1)C(=O)N[C@@H](CC1CCCCC1)C(=O)N[C@@H](CCCNC(=N)N)C(=O)N[C@@H](CCCCN)C(N)=O [Compound 18] (X25-[Cha][Cha]RK-NH2)
4,4.52,CN(Cc1ccccc1)[C@@H](Cc1ccccc1)C(=O)N[C@@H](CC1CCCCC1)C(=O)N[C@@H](CC1CCCCC1)C(=O)N[C@@H](CCCNC(=N)N)C(=O)N[C@@H](CCCCN)C(N)=O [Compound 19] (X9-[Cha][Cha]RK-NH2)
5,4.82,CN(CC1CCCCC1)[C@@H](Cc1ccccc1)C(=O)N[C@@H](CC1CCCCC1)C(=O)N[C@@H](CC1CCCCC1)C(=O)N[C@@H](CCCNC(=N)N)C(=O)N[C@@H](CCCCN)C(N)=O [Compound 20] (X13-[Cha][Cha]RK-NH2)
6,4.60,N=C(N)NCCC[C@H](NC(=O)[C@H](CC1CCCCC1)NC(=O)[C@H](CC1CCCCC1)NC(=O)c1ccccc1-c1ccccc1)C(=O)N[C@@H](CCCCN)C(N)=O [Compound 25] ({Benzoyl(2-Ph)}-[Cha][Cha]RK-NH2)
7,5.30,CCCCC(Oc1cccc2ccccc12)C(=O)N[C@@H](CC1CCCCC1)C(=O)N[C@@H](CC1CCCCC1)C(=O)N[C@@H](CCCNC(=N)N)C(=O)N[C@@H](CCCCN)C(N)=O (some centres unmarked) [Compound 27] (X20-[Cha][Cha]RK-NH2)

# More lines, now with the values behind:
row,Structure (SMILES),pIC50
1,"CCC(Oc1ccccc1)C(=O)N[C@@H](CC1CCCCC1)C(=O)N[C@@H](CC1CCCCC1)C(=O)N[C@@H](CCCNC(=N)N)C(=O)N[C@@H](CCCCN)C(N)=O (stereo partly drawn) [Compound 10, 2-Phenoxybutyryl-Cha-Cha-Arg-Lys-NH2] ({Butanoyl(2-OPh)}-[Cha][Cha]RK-NH2)",5.00
2,CC(C)(C)CN1Cc2ccccc2C[C@H]1C(=O)N[C@@H](CC1CCCCC1)C(=O)N[C@@H](CC1CCCCC1)C(=O)N[C@@H](CCCNC(=N)N)C(=O)N[C@@H](CCCCN)C(N)=O [Compound 13] (X19-[Cha][Cha]RK-NH2),5.30
3,CN(Cc1cccc(Oc2ccccc2)c1)[C@@H](Cc1ccccc1)C(=O)N[C@@H](CC1CCCCC1)C(=O)N[C@@H](CC1CCCCC1)C(=O)N[C@@H](CCCNC(=N)N)C(=O)N[C@@H](CCCCN)C(N)=O [Compound 17] (X1-[Cha][Cha]RK-NH2),4.82
4,"CCCCCN(CCCCC)[C@@H](Cc1ccccc1)C(=O)N[C@@H](CC1CCCCC1)C(=O)N[C@@H](CC1CCCCC1)C(=O)N[C@@H](CCCNC(=N)N)C(=O)N[C@@H](CCCCN)C(N)=O [Compound 21, (N,N-di-n-pentyl-Phe)-Cha-Cha-Arg-Lys-NH2] (X6-[Cha][Cha]RK-NH2)",5.00
5,CCCCCCC(Oc1ccc2ccccc2c1)C(=O)N[C@@H](CC1CCCCC1)C(=O)N[C@@H](CC1CCCCC1)C(=O)N[C@@H](CCCNC(=N)N)C(=O)N[C@@H](CCCCN)C(N)=O (some centres unmarked) [Compound 23] (X7-[Cha][Cha]RK-NH2),5.30
6,CCCCC(Oc1ccccc1)C(=O)N[C@@H](CC1CCCCC1)C(=O)N[C@@H](CC1CCCCC1)C(=O)N[C@@H](CCCNC(=N)N)C(=O)N[C@@H](CCCCN)C(N)=O (some centres unmarked) [Compound 24] (X21-[Cha][Cha]RK-NH2),4.82
7,CCCCCC/C(=C\c1ccccc1)CN[C@@H](CC1CCCCC1)C(=O)N[C@@H](CC1CCCCC1)C(=O)N[C@@H](CCCNC(=N)N)C(=O)N[C@@H](CCCCN)C(N)=O [Compound 26],5.12
